# Assay results reported in ChEMBL document CHEMBL5465560, “Selectivity Literature for EUbOPEN Chemogenomic Library” (2024).
# Columns and labels:
# [1] = target: T1, Serine/threonine-protein kinase tousled-like 1 (Homo sapiens) (UniProt Q9UKI8); experiment: Selectivity interaction (ProQinase) EUB0000171b TLK1
# T1 sequence (whole entry): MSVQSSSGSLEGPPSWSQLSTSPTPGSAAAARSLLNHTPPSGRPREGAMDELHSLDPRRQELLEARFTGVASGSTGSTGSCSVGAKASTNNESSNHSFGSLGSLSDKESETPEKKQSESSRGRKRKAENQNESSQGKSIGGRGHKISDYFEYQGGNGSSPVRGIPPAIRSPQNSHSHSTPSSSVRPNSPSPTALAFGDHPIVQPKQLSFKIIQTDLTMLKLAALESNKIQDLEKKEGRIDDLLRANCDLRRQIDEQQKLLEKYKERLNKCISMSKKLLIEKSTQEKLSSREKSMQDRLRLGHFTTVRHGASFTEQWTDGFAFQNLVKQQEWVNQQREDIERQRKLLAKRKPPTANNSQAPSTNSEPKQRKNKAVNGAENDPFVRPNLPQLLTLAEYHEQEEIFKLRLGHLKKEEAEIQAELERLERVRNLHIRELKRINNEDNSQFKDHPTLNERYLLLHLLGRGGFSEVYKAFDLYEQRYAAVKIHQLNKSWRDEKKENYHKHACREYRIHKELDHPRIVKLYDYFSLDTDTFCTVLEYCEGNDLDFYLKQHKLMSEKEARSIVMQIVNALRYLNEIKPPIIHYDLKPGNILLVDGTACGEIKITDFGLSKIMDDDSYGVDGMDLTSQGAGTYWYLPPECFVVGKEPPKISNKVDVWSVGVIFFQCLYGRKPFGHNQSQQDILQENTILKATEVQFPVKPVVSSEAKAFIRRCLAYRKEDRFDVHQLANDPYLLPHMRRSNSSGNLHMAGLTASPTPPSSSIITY
# [2] = target: Tyrosine-protein kinase JAK1 (Homo sapiens, UniProt P23458); experiment: Selectivity interaction (KinomeScan (DiscoverX)) EUB0000607a JAK1; details: at 10 µM
# Sequence of Tyrosine-protein kinase JAK1 (P23458 whole entry): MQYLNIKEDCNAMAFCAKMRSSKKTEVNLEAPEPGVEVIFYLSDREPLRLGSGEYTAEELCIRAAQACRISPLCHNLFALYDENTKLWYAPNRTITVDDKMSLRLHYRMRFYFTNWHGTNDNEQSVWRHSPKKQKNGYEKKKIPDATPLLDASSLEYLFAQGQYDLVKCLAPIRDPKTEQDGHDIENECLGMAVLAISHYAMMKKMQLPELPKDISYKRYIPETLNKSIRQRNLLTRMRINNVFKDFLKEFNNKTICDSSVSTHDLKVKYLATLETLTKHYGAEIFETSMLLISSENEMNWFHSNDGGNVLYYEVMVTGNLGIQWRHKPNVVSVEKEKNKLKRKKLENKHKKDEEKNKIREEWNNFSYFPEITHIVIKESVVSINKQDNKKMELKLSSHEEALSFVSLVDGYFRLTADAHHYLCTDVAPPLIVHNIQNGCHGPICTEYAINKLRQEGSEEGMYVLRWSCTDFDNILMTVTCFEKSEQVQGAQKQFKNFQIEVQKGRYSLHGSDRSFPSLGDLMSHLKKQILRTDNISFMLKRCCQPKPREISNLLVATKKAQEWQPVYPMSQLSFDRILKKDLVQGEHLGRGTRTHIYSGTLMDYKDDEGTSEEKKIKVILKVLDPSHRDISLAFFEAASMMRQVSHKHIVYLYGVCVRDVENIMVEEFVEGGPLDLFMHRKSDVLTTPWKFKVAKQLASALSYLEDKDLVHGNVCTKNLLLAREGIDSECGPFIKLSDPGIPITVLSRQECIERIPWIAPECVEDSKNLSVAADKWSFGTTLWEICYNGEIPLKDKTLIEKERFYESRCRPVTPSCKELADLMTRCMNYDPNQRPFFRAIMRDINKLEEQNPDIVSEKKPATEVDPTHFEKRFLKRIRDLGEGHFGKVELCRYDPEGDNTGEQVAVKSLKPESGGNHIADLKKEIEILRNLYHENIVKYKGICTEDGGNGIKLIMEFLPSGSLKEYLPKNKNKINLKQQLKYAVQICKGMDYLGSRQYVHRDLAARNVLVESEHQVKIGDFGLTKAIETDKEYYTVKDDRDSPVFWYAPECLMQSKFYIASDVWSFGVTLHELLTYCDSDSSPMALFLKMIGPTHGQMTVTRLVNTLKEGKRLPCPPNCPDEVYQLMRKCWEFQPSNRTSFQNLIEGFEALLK
# [3] = Selectivity interaction (KinomeScan (DiscoverX)) EUB0000045b CDPK1; details: at 10 µM
# [4] = target: T2, Serine/threonine-protein kinase BRSK2 (Homo sapiens) (UniProt Q8IWQ3); experiment: Selectivity interaction (KinomeScan (DiscoverX)) EUB0000618a BRSK2; details: at 10 µM
# T2 sequence (whole entry): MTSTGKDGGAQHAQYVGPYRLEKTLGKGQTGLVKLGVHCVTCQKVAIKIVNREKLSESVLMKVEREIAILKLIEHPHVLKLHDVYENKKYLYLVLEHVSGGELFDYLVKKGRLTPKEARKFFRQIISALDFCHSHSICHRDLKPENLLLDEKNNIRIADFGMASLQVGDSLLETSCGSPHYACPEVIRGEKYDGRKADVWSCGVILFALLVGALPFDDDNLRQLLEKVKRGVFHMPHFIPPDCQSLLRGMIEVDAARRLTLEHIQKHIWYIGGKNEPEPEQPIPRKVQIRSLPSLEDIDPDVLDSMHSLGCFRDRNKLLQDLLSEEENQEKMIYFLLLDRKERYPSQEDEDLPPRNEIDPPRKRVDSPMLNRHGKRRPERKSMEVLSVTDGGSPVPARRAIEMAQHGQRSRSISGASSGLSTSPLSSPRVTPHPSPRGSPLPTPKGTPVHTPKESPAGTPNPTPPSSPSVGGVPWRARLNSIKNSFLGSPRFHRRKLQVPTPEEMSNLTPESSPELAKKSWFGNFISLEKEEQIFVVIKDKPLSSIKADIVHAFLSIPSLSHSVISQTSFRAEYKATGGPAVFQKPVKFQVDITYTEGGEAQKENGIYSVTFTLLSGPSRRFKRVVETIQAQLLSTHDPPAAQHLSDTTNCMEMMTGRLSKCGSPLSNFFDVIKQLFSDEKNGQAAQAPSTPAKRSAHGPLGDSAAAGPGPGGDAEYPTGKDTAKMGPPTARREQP
# [5] = target: Angiopoietin-1 receptor (Homo sapiens) (UniProt Q02763); experiment: Selectivity interaction (Ambit KINOMEscan and KiNATiv profiling in Jurkat cells) EUB0000090b TEK; assay type: cell-based; details: at 1 µM
# Sequence of Angiopoietin-1 receptor (Homo sapiens) (Q02763 whole entry): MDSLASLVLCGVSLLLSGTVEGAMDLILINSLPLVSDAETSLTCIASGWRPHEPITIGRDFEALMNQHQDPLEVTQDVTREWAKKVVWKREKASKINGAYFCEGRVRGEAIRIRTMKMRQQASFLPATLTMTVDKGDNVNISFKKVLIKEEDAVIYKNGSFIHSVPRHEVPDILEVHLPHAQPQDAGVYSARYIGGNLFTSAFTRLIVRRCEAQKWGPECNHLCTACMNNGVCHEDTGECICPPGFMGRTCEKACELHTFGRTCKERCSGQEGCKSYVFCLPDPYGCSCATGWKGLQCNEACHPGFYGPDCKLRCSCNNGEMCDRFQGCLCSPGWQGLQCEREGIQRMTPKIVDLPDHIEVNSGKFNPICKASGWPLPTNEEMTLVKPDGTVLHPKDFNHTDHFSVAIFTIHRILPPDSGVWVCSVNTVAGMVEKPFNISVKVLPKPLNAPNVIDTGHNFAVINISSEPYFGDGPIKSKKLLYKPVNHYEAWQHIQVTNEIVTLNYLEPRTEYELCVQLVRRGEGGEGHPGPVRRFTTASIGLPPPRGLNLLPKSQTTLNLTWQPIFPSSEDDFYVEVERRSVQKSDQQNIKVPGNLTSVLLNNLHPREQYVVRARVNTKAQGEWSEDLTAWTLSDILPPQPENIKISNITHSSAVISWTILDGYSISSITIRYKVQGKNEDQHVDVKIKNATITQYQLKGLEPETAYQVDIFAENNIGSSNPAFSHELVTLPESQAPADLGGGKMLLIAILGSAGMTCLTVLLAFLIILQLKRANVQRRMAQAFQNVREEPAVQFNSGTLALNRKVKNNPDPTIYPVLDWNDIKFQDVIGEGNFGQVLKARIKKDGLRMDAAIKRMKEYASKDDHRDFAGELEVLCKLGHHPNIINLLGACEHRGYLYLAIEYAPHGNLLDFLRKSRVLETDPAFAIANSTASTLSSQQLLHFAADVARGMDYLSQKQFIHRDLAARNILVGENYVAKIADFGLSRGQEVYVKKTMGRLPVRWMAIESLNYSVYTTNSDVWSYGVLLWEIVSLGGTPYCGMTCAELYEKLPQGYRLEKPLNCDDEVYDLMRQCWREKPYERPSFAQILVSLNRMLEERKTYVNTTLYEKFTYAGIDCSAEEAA
# [6] = target: Histone-lysine N-methyltransferase KMT5C (Homo sapiens) (UniProt Q86Y97); details: at 10 µM
# Sequence of Histone-lysine N-methyltransferase KMT5C (Homo sapiens) (Q86Y97 whole entry, looked up): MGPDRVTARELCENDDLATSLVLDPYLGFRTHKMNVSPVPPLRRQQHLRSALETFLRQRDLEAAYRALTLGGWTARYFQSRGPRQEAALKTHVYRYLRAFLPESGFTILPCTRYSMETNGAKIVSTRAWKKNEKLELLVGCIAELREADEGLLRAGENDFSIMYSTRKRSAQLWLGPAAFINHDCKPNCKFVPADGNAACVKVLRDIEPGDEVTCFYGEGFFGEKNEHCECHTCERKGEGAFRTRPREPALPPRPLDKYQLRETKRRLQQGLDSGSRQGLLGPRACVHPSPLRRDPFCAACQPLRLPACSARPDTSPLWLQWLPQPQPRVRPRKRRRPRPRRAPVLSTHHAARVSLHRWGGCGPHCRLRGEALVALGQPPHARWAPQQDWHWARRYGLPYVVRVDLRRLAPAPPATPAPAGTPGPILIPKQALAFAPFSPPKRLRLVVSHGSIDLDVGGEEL
compound,measurement,setting,value
C=CC(=O)Nc1cccc(C(=O)Nc2ccc(Nc3cc(-c4[nH]c(SC)nc4C)ccn3)cc2)c1,% of control,[1]; at 1 µM,97%
same,% of control,[1]; at 5 µM,90%
CNC(=O)Nc1ccc(-c2nc(N3CC4CCC(C3)O4)c3cnn(C4CCC5(CC4)OCCO5)c3n2)cc1,% of control,[2],83%
C=CC(=O)Nc1cc(-n2c(=O)ccc3cnc4ccc(-c5ccc(NS(C)(=O)=O)cc5)cc4c32)ccc1C,% of control,[3],100%
O[C@H]1CC[C@H](Nc2ncc3nc(Nc4c(F)cc(F)cc4F)n([C@H]4CCOC4)c3n2)CC1,% of control,[4],99%
CN(C)C/C=C/C(=O)Nc1ccc(C(=O)N2CCCC(Nc3ncc(Cl)c(-c4c[nH]c5ccccc45)n3)C2)cc1 (configuration not stated),% of control,[5],92%
CNCCN1CCC(c2cc(CN(C)C(=O)c3cccc(Oc4ccccc4)c3)ccn2)CC1,% activity,[6],> 90%
